Assay results published in US20130267549A1, “Use of Pyrimidylaminobenzamide Derivatives for the Treatment of Fibrosis” (NOVARTIS AG, priority 2009, published 2013).

Test system: Rat Bleomycin Model
Assay: Rat bleomycin model of lung fibrosis: histological analysis of interstitial collagen deposition (Picrosirius red stain)
Type: in vivo
Details: co-administration with bleomycin, relative area and intensity of interstitial collagen (manual score), FIG. 1
Experimental: Appl. Pharmacol. (1992)116:30-7). Another well-established model for lung fibrosis is the rat bleomycin model published by E. White et al, Am J Respir Crit Care Med. 2006, 173: 112-121.
A histological analysis of levels of collagen deposition in the lung interstitium, as determined using Picrosirius red stain, for bleomycin alone as well as combinations of bleomycin and several other compounds, including AMN107, was performed. As depicted in FIG. 1 showing the levels of interstitial collagen in lung tissue as determined histologically using Picrosirius red stain (statistical analysis: Man Whitney rank sum test), co-administration of AMN107 can reduce the effect of bleomycin by more than 50%.

## Cc1cn(-c2cc(NC(=O)c3ccc(C)c(Nc4nccc(-c5cccnc5)n4)c3)cc(C(F)(F)F)c2)cn1 [AMN107, 4-methyl-3-[[4-(3-pyridinyl)-2-pyrimidinyl]amino]-N-[5-(4-methyl-1H-imidazol-1-yl)-3-(trifluoromethyl)phenyl]benzamide]
  reduction of the effect of bleomycin on levels of interstitial collagen in lung tissue: more than 50%
